Read-outs that look alike come from different tables or passages of the source.
Legend:
[1] = target: T1, hERG channel (Homo sapiens, UniProt Q12809); assay: hERG patch clamp in hERG-expressing CHO cells; assay type: cell-based
T1 construct: expressed in transfected cells; host or cells: CHO
Description: Sodium and potassium channels in the rodent DRG neurons were recorded and tested as described above. The human ether-a-go-go-related gene (hERG) encodes the rapidly activating potassium channel (IKr) contributing to the repolarization of the cardiac action potential. […] Therefore the representative example compounds in Table 2 were tested against the hERG channel.
Whole-cell patch clamp electrophysiology is employed to test compounds and a positive control compound. Extracellular Ringer's solution contains (in mM): NaCl (130), KCl (5), CaCl2 (1), Glucose (10), HEPES-Na (10) (pH 7.4 adjusted with HCl). Internal pipette solution contains (in mM): KF (120), CaCl2 (1), MgCl2 (1), KCl (10), EGTA (11), HEPES (10), KOH (11) (pH 7.2 adjusted with KOH). The hERG potassium currents are recorded under a holding potential of −80 mV and then depolarized to 40 mV for 2.5 seconds to activate the hERG channel. The peak tail currents are induced by a repolarizing pulse to −50 mV for 4 seconds. A 250 millisecond prepulse to −50 mV is applied for leak subtraction. This voltage-clamp pulse protocol is performed continuously during the experiment every 20 seconds allowing recovery from inactivation. For IC50 determination, each concentration is applied for 2 mins to reach a steady-state inhibitory level prior to the next higher concentrations tested. Each concentration is tested at 2-3 times (n=2-3).

[2] = test system: DRG ion channels Na+; assay: Sodium currents in DRG neurons, patch clamp; assay type: cell-based, rodent; details: Table 2
Description: All the procedures related to animal handling were in strict accordance with NIH guidelines and IACUC approved protocols. Briefly, the spine was taken out and split into two halves from the middle line after sacrificing the mice by decapitation. […] The DRG neurons were minced with fine scissors and incubated at 35° C. for 50 min. […] Finally the cells were dispersed onto poly-1-ornithine-coated cover slips and maintained in a modified Krebs solution with streptomycin sulfate (0.2 mM), Penicillin G Sodium (0.3 mM), and Gentamycin (0.1 mM) at 21° C. […] All experiments were performed at room temperature (around 21° C.). Whole-cell currents were recorded using a MultiClamp 700B amplifier and analyzed offline with pCLAMP10.4 software (Molecular Devices, LLC, Sunnyvale Calif., USA). […] The internal solution was composed (in mM) of 125 CsCl, 10 HEPES (acid), 10 EGTA (ethylene glycol tetraacetic acid), 1 CaCl2, 1 MgCl2, 4 MgATP and 0.3 […] 7.3-7.4 adjusted with CsOH; osmolality verified as 295 mOsm/kg). Since the sodium ions were absent in the external solution, tetrodoctoxin was not needed. […] To record sodium (Na^+) currents in DRG neurons, the external solution used the modified Krebs solution specified above. […] To record potassium currents in DRG neurons, the external solution used the modified Kreb's solution specified above. The internal solution was composed (in mM) of 65 KCl, 80 KF, 5 KOH, 10 EGTA, 2 MgATP (pH 7.3-7.4 adjusted with KOH). Recording electrodes were fabricated using a P-87 puller (Sutter Instrument Co., Novato, Calif., USA). […] All reagents were purchased from Sigma unless specified otherwise. […] Selectivity among the three subtypes of the Cav3 T-type channel, and off-target effects on other key ion channels of the representative example compounds are presented in Table 2. Sodium and potassium channels in the rodent DRG neurons were recorded and tested as described above. The human ether-a-go-go-related gene (hERG) encodes the rapidly activating potassium channel (IKr) contributing to the repolarization of the cardiac action potential. The blockade of hERG can lead to a QT prolongation in the electrocardiogram known as long QT syndrome (Sanguinetti, et al., 1995). Therefore the representative example compounds in Table 2 were tested against the hERG channel.

[3] = target: T2, Cav3.1 (Homo sapiens, UniProt O43497); assay: Whole-cell patch clamp of T-type Cav3.1 channel expressed in HEK293 cells; assay type: cell-based; details: Table 2
T2 construct: expressed in transfected cells; host or cells: HEK-293, tetracycline inducible expression system (Invitrogen)
T2 sequence (O43497 whole entry): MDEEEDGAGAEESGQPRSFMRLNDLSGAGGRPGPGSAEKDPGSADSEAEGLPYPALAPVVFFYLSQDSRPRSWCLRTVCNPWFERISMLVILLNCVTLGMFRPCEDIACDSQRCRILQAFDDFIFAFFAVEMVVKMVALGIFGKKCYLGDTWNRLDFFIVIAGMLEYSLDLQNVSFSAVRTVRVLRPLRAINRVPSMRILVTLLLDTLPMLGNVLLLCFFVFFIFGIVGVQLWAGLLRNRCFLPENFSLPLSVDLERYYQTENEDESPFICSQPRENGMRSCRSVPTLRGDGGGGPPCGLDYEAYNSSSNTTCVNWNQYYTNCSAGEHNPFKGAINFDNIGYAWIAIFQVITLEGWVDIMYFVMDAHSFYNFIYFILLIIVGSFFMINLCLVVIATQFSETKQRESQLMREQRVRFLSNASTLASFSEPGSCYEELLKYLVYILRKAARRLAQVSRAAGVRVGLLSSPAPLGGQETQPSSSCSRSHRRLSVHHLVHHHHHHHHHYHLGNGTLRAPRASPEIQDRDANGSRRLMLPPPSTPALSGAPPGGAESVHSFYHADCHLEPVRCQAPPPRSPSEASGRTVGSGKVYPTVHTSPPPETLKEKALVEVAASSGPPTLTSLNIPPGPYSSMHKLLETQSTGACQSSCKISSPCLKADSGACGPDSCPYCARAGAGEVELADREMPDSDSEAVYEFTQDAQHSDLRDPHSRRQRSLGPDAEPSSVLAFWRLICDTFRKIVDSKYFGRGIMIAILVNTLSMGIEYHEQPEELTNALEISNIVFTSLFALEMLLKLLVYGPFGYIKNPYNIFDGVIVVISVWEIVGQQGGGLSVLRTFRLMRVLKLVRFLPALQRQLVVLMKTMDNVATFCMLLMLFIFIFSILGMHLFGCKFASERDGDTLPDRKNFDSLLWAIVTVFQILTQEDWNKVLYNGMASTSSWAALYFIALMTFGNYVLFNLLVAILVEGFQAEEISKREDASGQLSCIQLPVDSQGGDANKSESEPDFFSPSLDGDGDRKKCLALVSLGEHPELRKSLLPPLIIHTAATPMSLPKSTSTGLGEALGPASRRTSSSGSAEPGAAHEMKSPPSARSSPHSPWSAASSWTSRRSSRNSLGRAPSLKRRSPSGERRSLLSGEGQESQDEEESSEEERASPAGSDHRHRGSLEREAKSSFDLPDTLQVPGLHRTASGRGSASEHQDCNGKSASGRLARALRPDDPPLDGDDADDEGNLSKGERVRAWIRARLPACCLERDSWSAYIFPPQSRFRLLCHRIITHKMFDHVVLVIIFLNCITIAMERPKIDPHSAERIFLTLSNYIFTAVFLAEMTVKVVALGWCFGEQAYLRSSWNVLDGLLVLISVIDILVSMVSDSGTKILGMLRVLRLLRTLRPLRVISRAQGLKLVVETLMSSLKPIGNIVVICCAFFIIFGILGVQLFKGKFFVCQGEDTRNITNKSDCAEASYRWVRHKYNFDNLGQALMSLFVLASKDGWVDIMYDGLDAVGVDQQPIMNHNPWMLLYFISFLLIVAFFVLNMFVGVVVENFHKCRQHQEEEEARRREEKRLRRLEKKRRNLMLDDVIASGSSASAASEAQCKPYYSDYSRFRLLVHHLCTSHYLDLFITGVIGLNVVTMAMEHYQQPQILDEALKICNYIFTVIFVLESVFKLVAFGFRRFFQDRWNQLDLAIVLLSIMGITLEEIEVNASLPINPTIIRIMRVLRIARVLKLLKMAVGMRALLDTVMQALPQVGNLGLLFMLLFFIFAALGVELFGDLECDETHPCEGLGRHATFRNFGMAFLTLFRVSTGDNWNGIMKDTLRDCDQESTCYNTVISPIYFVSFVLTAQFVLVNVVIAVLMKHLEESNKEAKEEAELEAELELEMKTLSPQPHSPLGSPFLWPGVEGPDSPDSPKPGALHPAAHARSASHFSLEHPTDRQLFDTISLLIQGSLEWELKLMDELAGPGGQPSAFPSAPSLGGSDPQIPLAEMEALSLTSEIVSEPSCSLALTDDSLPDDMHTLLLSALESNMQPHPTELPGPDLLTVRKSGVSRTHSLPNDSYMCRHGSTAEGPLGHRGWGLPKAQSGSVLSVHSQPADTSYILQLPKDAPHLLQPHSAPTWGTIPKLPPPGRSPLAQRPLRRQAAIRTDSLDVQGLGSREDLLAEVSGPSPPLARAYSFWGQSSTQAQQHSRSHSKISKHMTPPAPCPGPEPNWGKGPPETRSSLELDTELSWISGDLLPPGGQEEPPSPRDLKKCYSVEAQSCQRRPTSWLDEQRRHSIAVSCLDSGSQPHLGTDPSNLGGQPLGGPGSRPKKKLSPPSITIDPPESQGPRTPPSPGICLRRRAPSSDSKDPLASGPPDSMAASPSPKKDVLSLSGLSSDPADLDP
Description: Cav3.1, Cav3.2 or Cav3.3 channels were expressed in human embryonic kidney (HEK)-293 cells using a tetracycline inducible expression system (Invitrogen). Cells were maintained in 25 cm^2 tissue culture flasks at 37° C., 5% CO2, and 100% relative humidity in D-MEM/F12 (Dulbecco's Modified Eagle Medium/Nutrient Mixture F-12; Gibco) supplemented with fetal bovine serum (FBS, 10% v/v), sodium pyruvate (0.5 mM, Gibco), penicillin-streptomycin (100 U/mL, 100 μg/mL) and Geneticin® Selective antibiotic (G418; 0.5 mg/mL). Cells were detached from the flask base using a non-enzymatic cell dissociation solution (Cellstripper, Corning), removed and re-seeded on to poly-D-lysine coated glass coverslips in 35 mm dishes.
Whole-cell voltage clamp recordings were performed on rat or mouse DRG neurons within 2 days after acutely dissociation or cultured HEK293 cells expressing T-type channels (encoded by Cav3.1, Cav3.2 or Cav3.3 channels). All experiments were performed at room temperature (around 21° C.). Whole-cell currents were recorded using a MultiClamp 700B amplifier and analyzed offline with pCLAMP10.4 software (Molecular Devices, LLC, Sunnyvale Calif., USA). […] Since the sodium ions were absent in the external solution, tetrodoctoxin was not needed. Calcium currents were recorded at a holding potential of −100 mV and then depolarized to −30 mV for 100 ms to activate either Cav3.1, Cav3.2, or Cav3.3 expressed in HEK cells. An interpulse interval of 10 seconds allowed the channel recovery from inactivation, and achieved stable current recordings. To record sodium (Na^+) currents in DRG neurons, the external solution used the modified Krebs solution specified above. The internal solution was composed (in mM) of 120 CsF, 10 HEPES, 11 EGTA, 1 CaCl2, 1 MgCl2, 10 TEA-Cl, 4 MgATP and 0.3 MgGTP (pH 7.3-7.4 adjusted with CsOH). […] To record potassium currents in DRG neurons, the external solution used the modified Kreb's solution specified above. The internal solution was composed (in mM) of 65 KCl, 80 KF, 5 KOH, 10 EGTA, 2 MgATP (pH 7.3-7.4 adjusted with KOH). Recording electrodes were fabricated using a P-87 puller (Sutter Instrument Co., Novato, Calif., USA). The tip of resistance was 3-4 MQ in bath and the series resistance was less than 10 MΩ after whole cell configuration. All reagents were purchased from Sigma unless specified otherwise. Test compounds were usually applied via a rapid solution exchange system with 8 fine polyplastic tubings (100 μm, OD) glued in a holder in parallel and located closely to the recorded cells. The current responses were normalized to the control, percent inhibition was calculated and sigmoidal dose-response curves were generated using XLFit (IDBS, Surrey, UK) or Prism (GraphPad Software, La Jolla, Calif., US) to calculate IC50 values and Hill slopes using the following equation Y=Bottom+(Top−Bottom)/(1+10^((Log EC50−X)[…])).

T1 sequence (Q12809 whole entry): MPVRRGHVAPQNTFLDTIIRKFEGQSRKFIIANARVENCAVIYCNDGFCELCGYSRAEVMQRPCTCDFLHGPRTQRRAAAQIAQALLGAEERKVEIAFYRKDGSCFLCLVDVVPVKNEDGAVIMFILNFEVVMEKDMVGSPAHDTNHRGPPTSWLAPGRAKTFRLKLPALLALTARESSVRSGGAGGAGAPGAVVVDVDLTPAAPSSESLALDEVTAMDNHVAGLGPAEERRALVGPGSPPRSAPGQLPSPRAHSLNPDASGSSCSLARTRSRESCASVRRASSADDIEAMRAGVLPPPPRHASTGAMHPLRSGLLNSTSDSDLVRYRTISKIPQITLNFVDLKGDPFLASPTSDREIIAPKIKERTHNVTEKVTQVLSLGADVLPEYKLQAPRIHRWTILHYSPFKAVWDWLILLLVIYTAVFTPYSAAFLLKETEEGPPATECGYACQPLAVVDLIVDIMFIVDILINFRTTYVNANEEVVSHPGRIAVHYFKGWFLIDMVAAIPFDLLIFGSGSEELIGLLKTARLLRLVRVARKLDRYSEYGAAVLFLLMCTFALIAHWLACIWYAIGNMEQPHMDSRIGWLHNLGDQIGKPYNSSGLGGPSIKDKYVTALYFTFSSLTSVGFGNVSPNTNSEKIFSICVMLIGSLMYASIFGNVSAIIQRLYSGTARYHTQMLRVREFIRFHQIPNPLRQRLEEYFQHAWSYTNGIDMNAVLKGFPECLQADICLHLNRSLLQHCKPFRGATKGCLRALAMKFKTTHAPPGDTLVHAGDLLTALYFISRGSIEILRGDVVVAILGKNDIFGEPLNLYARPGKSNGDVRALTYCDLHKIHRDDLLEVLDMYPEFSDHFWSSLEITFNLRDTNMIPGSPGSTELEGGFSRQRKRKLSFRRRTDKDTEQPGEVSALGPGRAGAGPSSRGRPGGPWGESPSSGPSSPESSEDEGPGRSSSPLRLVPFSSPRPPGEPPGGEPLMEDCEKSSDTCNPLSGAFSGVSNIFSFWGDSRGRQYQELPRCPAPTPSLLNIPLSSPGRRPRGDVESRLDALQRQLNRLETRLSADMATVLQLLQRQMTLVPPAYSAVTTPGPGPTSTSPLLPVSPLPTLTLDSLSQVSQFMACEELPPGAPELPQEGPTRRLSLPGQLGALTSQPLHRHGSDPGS

## CC(C)(C)NC(=O)CN1CCC2(CC1)C[C@H]2NC(=O)c1cc(Cl)cc(Cl)c1 (single isomer, unassigned) [Example 57, (R)—N-(6-(2-(tert-Butylamino)-2-oxoethyl)-6-azaspiro[2.5]octan-1-yl)-3,5-dichlorobenzamide or (S)—N-(6-(2-(tert-Butylamino)-2-oxoethyl)-6-azaspiro[2.5]octan-1-yl)-3,5-dichlorobenzamide]
[1]; human, CHO cells expressing hERG, pH 7.4, 1 μM, values in brackets, read-out: hERG (%) inh. at 1 μM
  inhibition at 1 µM: 22%
[2]
  IC50: 37.2 µM
[3]
  IC50: 0.13 µM

## CC(C)(C)NC(=O)CN1CCC2(CC1)C[C@H]2C(=O)Nc1cc(C(F)(F)F)cc(C(F)(F)F)c1 (single isomer, unassigned) [Example 132, (R)—N-(3,5-Bis(trifluoromethyl)phenyl)-6-(2-(tert-butylamino)-2-oxoethyl)-6-azaspiro[2.5]octane-1-carboxamide or (S)—N-(3,5-Bis(trifluoromethyl)phenyl)-6-(2-(tert-butylamino)-2-oxoethyl)-6-azaspiro[2.5]octane-1-carboxamide]
[1]; 1 μM, values in brackets
  hERG (%) inh. at 1 μM: (9%)
[2]
  IC50: 14.3 µM
[3]
  IC50: 0.12 µM

## CC(C)(C)NC(=O)CN1CCC2(CC1)C[C@H]2NC(=O)C12CC3CC(CC(C3)C1)C2 (single isomer, unassigned) [Example 145, N—((R)-6-(2-(tert-butylamino)-2-oxoethyl)-6-azaspiro[2.5]octan-1-yl)adamantane-1-carboxamide or N—((S)-6-(2-(tert-butylamino)-2-oxoethyl)-6-azaspiro[2.5]octan-1-yl)adamantane-1-carboxamide]
[1]; Table 2, read-out: hERG IC50
  IC50: > 30 µM
[2]
  IC50: > 30 µM
[3]
  IC50: 0.07 µM

## CC(C)(C)NC(=O)CN1CCC2(CC1)C[C@H]2NC(=O)c1cc(F)cc(C(F)(F)F)c1 (single isomer, unassigned) [Example 130, (R)—N-(6-(2-(tert-Butylamino)-2-oxoethyl)-6-azaspiro[2.5]octan-1-yl)-3-fluoro-5-(trifluoromethyl)benzamide or (S)—N-(6-(2-(tert-Butylamino)-2-oxoethyl)-6-azaspiro[2.5]octan-1-yl)-3-fluoro-5-(trifluoromethyl)benzamide]
[1]; Table 2, read-out: hERG IC50
  IC50: 8 µM
[2]
  IC50: > 100 µM
[3]
  IC50: 0.11 µM

## CC(C)(C)NC(=O)CN1CCC2(CC1)CC2C(=O)Nc1cc(F)cc(C(F)(F)F)c1 (stereo not drawn) [Example 141, 6-(2-(tert-Butylamino)-2-oxoethyl)-N-(3-fluoro-5-(trifluoromethyl)phenyl)-6-azaspiro[2.5]octane-1-carboxamide]
[1]; Table 2, read-out: hERG IC50
  IC50: 17.4 µM
[2]
  IC50: > 30 µM
[3]
  IC50: 0.34 µM

## CC(C)(C)CCN1CCC2(CC1)C[C@H]2NC(=O)c1cc(C(F)(F)F)ccc1Cl (single isomer, unassigned) [Example 147, (R)-2-Chloro-N-(6-(3,3-dimethylbutyl)-6-azaspiro[2.5]octan-1-yl)-5-(trifluoromethyl)benzamide or (S)-2-Chloro-N-(6-(3,3-dimethylbutyl)-6-azaspiro[2.5]octan-1-yl)-5-(trifluoromethyl)benzamide]
[1]; Table 2, read-out: hERG IC50
  IC50: 1.8 µM
[2]
  IC50: 14.3 µM
[3]
  IC50: 2.41 µM

## CC(C)(C)NC(=O)CN1CCC2(CC1)CC2NC(=O)c1cc(F)cc(Cl)c1 (single isomer, unassigned) [Example 128, (S)—N-(6-(2-(tert-Butylamino)-2-oxoethyl)-6-azaspiro[2.5]octan-1-yl)-3-chloro-5-fluorobenzamide or (R)—N-(6-(2-(tert-Butylamino)-2-oxoethyl)-6-azaspiro[2.5]octan-1-yl)-3-chloro-5-fluorobenzamide]
[1]
  IC50: 7 µM
[2]
  IC50: > 100 µM
[3]
  IC50: 0.06 µM

## CC(C)(C)NC(=O)CN1CCC(CNC(=O)c2cc(F)cc(Cl)c2)CC1 [Z944, reference compound]
[1]; Table 2, read-out: hERG IC50
  IC50: 9.5 µM
[2]
  IC50: > 30 µM
[3]
  IC50: 0.11 µM

## CC(C)(C)CCN1CCC2(CC1)C[C@H]2NC(=O)c1cc(C(F)(F)F)cc(C(F)(F)F)c1 (single isomer, unassigned) [Example 146, (R)—N-(6-(3,3-dimethylbutyl)-6-azaspiro[2.5]octan-1-yl)-3,5-bis(trifluoromethyl)benzamide or (S)—N-(6-(3,3-dimethylbutyl)-6-azaspiro[2.5]octan-1-yl)-3,5-bis(trifluoromethyl)benzamide]
[1]; Table 2, read-out: hERG IC50
  IC50: 1.2 µM
[2]
  IC50: 8.7 µM
[3]
  IC50: 0.12 µM

## CC(C)(C)CCN1C[C@@H]2[C@@H](CNC(=O)c3cc(Cl)cc(Cl)c3)[C@@H]2C1 [ML218, 3,5-Dichloro-N-[[(1α,5α,6-exo,6α)-3-(3,3-dimethylbutyl)-3-azabicyclo[3.1.0]hex-6-yl]methyl]benzamide, reference compound]
[1]; Table 2, read-out: hERG IC50
  IC50: 2.1 µM
[2]
  IC50: 55.6 µM
[3]
  IC50: 0.14 µM

## CC(C)(C)CCN1CCC2(CC1)CC2NC(=O)c1cc(F)cc(Cl)c1 (stereo not drawn) [Example 28, 3-Chloro-N-(6-(3,3-dimethylbutyl)-6-azaspiro[2.5]octan-1-yl)-5-fluorobenzamide]
[1]
  IC50: 3.6 µM
[2]
  IC50: 23.4 µM
[3]
  IC50: 0.28 µM

Source: US10562857B2 (AFASCI, Inc., priority 2015, dated 2020)
